Measurements taken from article PMC12892976, “Alkylation-based optimization of antifungal FPPS inhibitors yields a potent, broad-spectrum lipophilic zoledronate derivative” (mBio, 2025).
Converted amounts (≈) assume the structure as drawn.

Tests used:
[1] = test system: Trichophyton interdigitale; assay: checkerboard drug interaction (FICI, MICc);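 note: simplified diagonal checkerboard screen pairing antifungals with FPPS inhibitors, FICI values calculated under the Loewe additivity model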
Method: (§1) Drug interactions between antifungals and FPPS inhibitors were investigated using a simplified checkerboard diagonal screening method ([45]). […] FICIs were determined according to the Loewe additivity model ([17]).

Aspergillus terreus [2] = assay: checkerboard drug interaction (FICI, MICc); format: cell-based;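 note: simplified diagonal checkerboard screen pairing antifungals with FPPS inhibitors, FICI derived by the Loewe additivity model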
Method: as §1

Fusarium oxysporum [3] = assay: checkerboard drug interaction (FICI, MICc); format: cell-based;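 note: simplified diagonal checkerboard screen pairing antifungals with FPPS inhibitors, FICI calculated under the Loewe additivity model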
Method: as §1

Pichia kudriavzevii [4] = assay: checkerboard drug interaction (FICI, MICc); format: cell-based;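 note: antifungal plus FPPS inhibitor interactions tested in a simplified diagonal checkerboard screen, with FICI calculated under the Loewe additivity model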
Method: as §1

Cryptococcus gattii = assay: MIC broth microdilution (CLSI); format: cell-based; conditions: Cryptococcus gattii PNG27
Method: (§2) Antifungal susceptibility was determined by broth microdilution according to the CLSI guidelines described in M27-Ed4 ([16]).

Aspergillus lentulus [5] = assay: checkerboard drug interaction (FICI, MICc); format: cell-based;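 note: simplified diagonal checkerboard screen pairing antifungals with FPPS inhibitors, with the interaction index calculated under the Loewe additivity model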
Method: as §1

Nannizzia nana [6] = assay: checkerboard drug interaction (FICI, MICc); format: cell-based;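 note: simplified diagonal checkerboard screen pairing antifungals with FPPS inhibitors, FICI calculated under the Loewe additivity model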
Method: as §1

Candida dubliniensis [7] = assay: MIC broth microdilution (CLSI); format: cell-based; conditions: Candida dubliniensis M230642
Method: as §2

[8] = test system: Cryptococcus deneoformans; assay: checkerboard drug interaction (FICI, MICc); format: cell-based;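 note: simplified diagonal checkerboard screen pairing antifungals with FPPS inhibitors, FICI calculated under the Loewe additivity model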
Method: as §1

[9] = test system: Cryptococcus bacillisporus; assay: MIC broth microdilution (CLSI); format: cell-based; conditions: Cryptococcus bacillisporus NIH179
Method: as §2

Aspergillus felis [10] = assay: checkerboard drug interaction (FICI, MICc); format: cell-based;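 note: simplified diagonal checkerboard screen pairing antifungals with FPPS inhibitors, FICI calculated under the Loewe additivity model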
Method: as §1

Nannizzia gypsea [11] = assay: checkerboard drug interaction (FICI, MICc);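 note: simplified diagonal checkerboard screen pairing antifungals with FPPS inhibitors, FICI derived using the Loewe additivity model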
Method: as §1

Aspergillus terreus [12] = assay: MIC broth microdilution (CLSI); format: cell-based; conditions: Aspergillus terreus 75-16-089-2500
Method: as §2

Pichia kudriavzevii [13] = assay: MIC broth microdilution (CLSI); format: cell-based; conditions: Pichia kudriavzavii ATCC 6258
Method: Antifungal susceptibility was determined by broth microdilution according to the CLSI guidelines described in M27-Ed4 ([16]). […] MFC was determined by back-plating drug-treated cultures from MIC broths onto SDA plates. The MFC was defined as the lowest concentration from which no colonies could be cultured.

Epidermophyton floccosum [14] = assay: checkerboard drug interaction (FICI, MICc)
Method: as §1

Candida tropicalis = assay: MIC broth microdilution (CLSI); format: cell-based; conditions: Candida tropicalis M230640
Method: as §2

Rhizopus oryzae [15] = assay: checkerboard drug interaction (FICI, MICc); format: cell-based
Method: as §1

Paraphyton cookei = assay: checkerboard drug interaction (FICI, MICc);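 note: simplified diagonal checkerboard screen pairing an antifungal with an FPPS inhibitor, FICI computed under the Loewe additivity model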
Method: as §1

[16] = test system: Cryptococcus bacillisporus; assay: checkerboard drug interaction (FICI, MICc); format: cell-based;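 note: interaction of antifungals with FPPS inhibitors assessed by a simplified diagonal checkerboard screen, with FICI computed under the Loewe additivity model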
Method: as §1

Candida dubliniensis [17] = assay: checkerboard drug interaction (FICI, MICc); format: cell-based
Method: as §1

Cryptococcus tetragattii = assay: MIC broth microdilution (CLSI); format: cell-based; conditions: Cryptococcus tetragattii WM779
Method: as §2

Lomentospora prolificans [18] = assay: checkerboard drug interaction (FICI, MICc)
Method: as §1

Nannizzia nana [19] = assay: MIC broth microdilution (CLSI); format: cell-based; conditions: Nannizzia nana R-133
Method: as §2

Fusarium oxysporum [20] = assay: MIC broth microdilution (CLSI); format: cell-based; conditions: Fusarium oxysporum 07-200-3012
Method: as §2

Candida auris = assay: MIC broth microdilution (CLSI); format: cell-based; conditions: Candida auris CDC-0384
Method: as §2

[21] = test system: Aspergillus frankstonensis; assay: MIC broth microdilution (CLSI); format: cell-based; conditions: Aspergillus frankstonensis DTO 341-F3
Method: as §2

Fusarium solani = assay: MIC broth microdilution (CLSI); conditions: Fusarium solani 04-16-056-1862
Method: as §2

Epidermophyton floccosum [22] = assay: MIC broth microdilution (CLSI); format: cell-based; conditions: Epidermophyon floccosum R-113
Method: as §2

Trichophyton tonsurans = assay: MIC broth microdilution (CLSI); conditions: Trichophyton tonsurans R-168
Method: as §2

Aspergillus niger = assay: MIC broth microdilution (CLSI); format: cell-based; conditions: Aspergillus niger 111
Method: as §2

Rhizopus oryzae [23] = assay: MIC broth microdilution (CLSI); format: cell-based; conditions: Rhizopus oryzae 04-14-364-1703
Method: as §2

Scedosporium apiospermum = assay: MIC broth microdilution (CLSI); format: cell-based; conditions: Scedosporium apiospermum 04-16-022-2268
Method: as §2

Aspergillus felis [24] = assay: MIC broth microdilution (CLSI); format: cell-based; conditions: Aspergillus felis IHE87256683D6
Method: as §2

Lomentospora prolificans [25] = assay: MIC broth microdilution (CLSI); format: cell-based; conditions: Lomentospora prolificans 80-16-101-2445
Method: as §2

Nannizzia gypsea [26] = assay: MIC broth microdilution (CLSI); format: cell-based; conditions: Nannizzia gypsea R-131
Method: as §2

Aspergillus lentulus [27] = assay: MIC broth microdilution (CLSI); format: cell-based; conditions: Aspergillus lentulus DTO 341-G7
Method: as §2

Microsporum canis = assay: MIC broth microdilution (CLSI); conditions: Microsporum canis R-232
Method: as §2

SMILES: OC(Cn1cncn1)(Cn1cncn1)c1ccc(F)cc1F [FLC, fluconazole]
- antifungal MICc ([1]; in combination with 10-ZOL): 32
- antifungal MICc (Aspergillus terreus [2]; in combination with 10-ZOL): 2
- antifungal MICc (Aspergillus terreus [2]; in combination with ZOL): 8
- antifungal MICc (Fusarium oxysporum [3]; in combination with ZOL): 64
- antifungal MICc (Pichia kudriavzevii [4]; in combination with 10-ZOL): 16
- antifungal MICc (Pichia kudriavzevii [4]; in combination with ZOL): 8
- MIC / MEC (Cryptococcus gattii): 2 µg/mL (≈ 6.53 µM)
- antifungal MICc (Aspergillus lentulus [5]; in combination with 10-ZOL): 4
- antifungal MICc (Aspergillus lentulus [5]; in combination with ZOL): 64
- antifungal MICc (Nannizzia nana [6]; in combination with 10-ZOL): 32
- antifungal MICc (Nannizzia nana [6]; in combination with ZOL): 8
- MIC / MEC (Candida dubliniensis [7]): 0.125 µg/mL (≈ 0.408 µM)
- antifungal MICc ([8]; in combination with 10-ZOL): 0.25
- antifungal MICc ([8]; in combination with ZOL): 0.125
- MIC / MEC [9]: 1 µg/mL (≈ 3.27 µM)
- antifungal MICc (Aspergillus felis [10]; in combination with 10-ZOL): 4
- antifungal MICc (Nannizzia gypsea [11]; in combination with 10-ZOL): 64
- MIC / MEC (Aspergillus terreus [12]): 64 µg/mL (≈ 209 µM)
- MIC / MEC (Pichia kudriavzevii [13]): 32 µg/mL (≈ 104 µM)
- antifungal MICc (Epidermophyton floccosum [14]; in combination with 10-ZOL): 32
- MIC / MEC (Candida tropicalis): 16 µg/mL (≈ 52.2 µM)
- antifungal MICc (Rhizopus oryzae [15]; in combination with 10-ZOL): 32
- antifungal MICc (Paraphyton cookei; in combination with 10-ZOL): 8
- antifungal MICc ([16]; in combination with 10-ZOL): 1
- antifungal MICc ([16]; in combination with ZOL): 0.125
- antifungal MICc (Candida dubliniensis [17]; in combination with 10-ZOL): 0.125
- antifungal MICc (Candida dubliniensis [17]; in combination with ZOL): 0.03125
- MIC / MEC (Cryptococcus tetragattii): 4 µg/mL (≈ 13.1 µM)
- antifungal MICc (Lomentospora prolificans [18]; in combination with ZOL): 512
- MIC / MEC (Nannizzia nana [19]): 32 µg/mL (≈ 104 µM)

SMILES: CC[C@H](C)C[C@H](C)CCCCCCCCC(=O)N[C@H]1C[C@@H](O)[C@@H](NCCN)NC(=O)[C@@H]2[C@@H](O)CCN2C(=O)[C@H]([C@H](O)CCN)NC(=O)[C@H]([C@H](O)[C@@H](O)c2ccc(O)cc2)NC(=O)[C@@H]2C[C@@H](O)CN2C(=O)[C@H]([C@@H](C)O)NC1=O [CAS, caspofungin]
- MIC / MEC (Fusarium oxysporum [20]): >16 µg/mL
- antifungal MICc ([1]; in combination with 10-ZOL): 0.5
- antifungal MICc ([1]; in combination with ZOL): 0.25
- antifungal MICc (Aspergillus terreus [2]; in combination with 10-ZOL): 2
- antifungal MICc (Aspergillus terreus [2]; in combination with ZOL): 2
- MIC / MEC (Candida auris): 4 µg/mL (≈ 3.66 µM)
- antifungal MICc (Fusarium oxysporum [3]; in combination with 10-ZOL): 128
- antifungal MICc (Fusarium oxysporum [3]; in combination with ZOL): 64
- MIC / MEC [21]: 0.13 µg/mL (≈ 0.119 µM)
- antifungal MICc (Pichia kudriavzevii [4]; in combination with 10-ZOL): 0.5
- antifungal MICc (Pichia kudriavzevii [4]; in combination with ZOL): 0.5
- MIC / MEC (Fusarium solani): 16 µg/mL (≈ 14.6 µM)
- MIC / MEC (Cryptococcus gattii): 8 µg/mL (≈ 7.32 µM)
- MIC / MEC (Epidermophyton floccosum [22]): 0.13 µg/mL (≈ 0.119 µM)
- MIC / MEC (Trichophyton tonsurans): 0.5 µg/mL (≈ 0.457 µM)
- antifungal MICc (Aspergillus lentulus [5]; in combination with 10-ZOL): 4
- antifungal MICc (Aspergillus lentulus [5]; in combination with ZOL): 2
- antifungal MICc (Nannizzia nana [6]; in combination with 10-ZOL): 0.25
- antifungal MICc (Nannizzia nana [6]; in combination with ZOL): 0.033
- MIC / MEC (Candida dubliniensis [7]): 0.06 µg/mL (≈ 0.0549 µM)
- antifungal MICc ([8]; in combination with 10-ZOL): 2
- antifungal MICc ([8]; in combination with ZOL): 8
- MIC / MEC [9]: 8 µg/mL (≈ 7.32 µM)
- MIC / MEC (Aspergillus niger): 4 µg/mL (≈ 3.66 µM)
- antifungal MICc (Aspergillus felis [10]; in combination with 10-ZOL): 0.5
- antifungal MICc (Aspergillus felis [10]; in combination with ZOL): 0.5
- antifungal MICc (Nannizzia gypsea [11]; in combination with 10-ZOL): 0.25
- antifungal MICc (Nannizzia gypsea [11]; in combination with ZOL): 0.5
- MIC / MEC (Aspergillus terreus [12]): 2 µg/mL (≈ 1.83 µM)
- MIC / MEC (Pichia kudriavzevii [13]): 1 µg/mL (≈ 0.915 µM)
- antifungal MICc (Epidermophyton floccosum [14]; in combination with 10-ZOL): 0.125
- antifungal MICc (Epidermophyton floccosum [14]; in combination with ZOL): 0.25
- MIC / MEC (Candida tropicalis): 0.06 µg/mL (≈ 0.0549 µM)
- antifungal MICc (Rhizopus oryzae [15]; in combination with 10-ZOL): 128
- antifungal MICc (Rhizopus oryzae [15]; in combination with ZOL): 4
- antifungal MICc (Paraphyton cookei; in combination with 10-ZOL): 0.25
- antifungal MICc (Paraphyton cookei; in combination with ZOL): 0.125
- MIC / MEC (Rhizopus oryzae [23]): >16 µg/mL
- antifungal MICc ([16]; in combination with 10-ZOL): 2
- antifungal MICc ([16]; in combination with ZOL): 8
- MIC / MEC (Scedosporium apiospermum): 16 µg/mL (≈ 14.6 µM)
- antifungal MICc (Candida dubliniensis [17]; in combination with 10-ZOL): 0.063
- antifungal MICc (Candida dubliniensis [17]; in combination with ZOL): 0.01
- MIC / MEC (Aspergillus felis [24]): 0.25 µg/mL (≈ 0.229 µM)
- MIC / MEC (Lomentospora prolificans [25]): >16 µg/mL
- MIC / MEC (Cryptococcus tetragattii): 8 µg/mL (≈ 7.32 µM)
- antifungal MICc (Lomentospora prolificans [18]; in combination with 10-ZOL): 128
- antifungal MICc (Lomentospora prolificans [18]; in combination with ZOL): 64
- MIC / MEC (Nannizzia gypsea [26]): 1 µg/mL (≈ 0.915 µM)
- MIC / MEC (Nannizzia nana [19]): 0.13 µg/mL (≈ 0.119 µM)
- MIC / MEC (Aspergillus lentulus [27]): 4 µg/mL (≈ 3.66 µM)
- MIC / MEC (Microsporum canis): 0.25 µg/mL (≈ 0.229 µM)
